This assay deals with LRRK2 (Homo sapiens (Human), UniProt Q5S007). As to the kind of experiment: In Vitro LRRK2 Assay (LabChip 3000, fluorescently-labeled peptide substrate). Conditions: ATP 130 μM, substrate 1 μM, 2 hours, ambient temperature; LRRK2 variant not given; read-out: Ki (μM), affinity values for LRRK2. The format is biochemical. Here is the method:
This assay was used to determine a compound's potency in inhibiting activity of LRRK2 by determining, Kiapp, IC50, or percent inhibition values. In a polypropylene plate, LRRK2, fluorescently-labeled peptide substrate, ATP and test compound were incubated together. Using a LabChip 3000 (Caliper Life Sciences), after the reaction the substrate was separated by capillary electrophoresis into two populations: phosphorylated and unphosphorylated. The relative amounts of each were quantitated by fluorescence intensity. LRRK2 Ki was determined according to the equation: Y=V0*(1−((x+Ki*(1+S/Km)+Et)/(2*Et)−(((x+Ki*(1+S/Km)+Et)^2−(4*Et*x))^0.5)/(2*Et))).
Ki values in Table 4 and elsewhere herein are shown in μM.
Assay conditions and materials used were as follows:
Compound Plate Preparation:
For serial dilutions, 34.6 μl DMSO was added to columns 3-24.
Total and Blank Preparation:
In Complete Reaction Buffer, substrate was diluted to 4 μM. Equal volumes of Complete Reaction Buffer and 4 μM substrate were combined to obtain the blank. Equal volumes of Complete Reaction Buffer and 4 μM substrate were combined and to the combined solution was added 2× final LRRK2 concentration.
To a 50 μl polypropylene plate, 5 μl/well buffer/substrate was added by hand to Blank wells. A Biomek FX was used to start the kinase reaction (“PLK SAR 23 ATP”). The following were added to the appropriate wells: • 2 μl compound+23 μl ATP; • 5 μl/well compound/ATP in Assay Plate; • 5 μl/well kinase/substrate in Assay Plate;
The plate was incubated for 2 hours in the dark. Biomek FX was used to stop the kinase reaction (“PLK Stop”), and 10 μl/well Stop solution was added to the Assay Plate. Results were read on the LabChip 3000.
The LabChip 3000 was run using the job “LRRK2 IC50” with the following job settings: • Pressure: −1.4 psi • Downstream voltage: −500 V • Upstream voltage: −2350 V • Post sample buffer sip time: 75 seconds • Post dye buffer sip time: 75 seconds • Final delay time: 200 seconds Parkinson's Disease Animal Model

Chain of LRRK2 (Q5S007 whole entry G2019S): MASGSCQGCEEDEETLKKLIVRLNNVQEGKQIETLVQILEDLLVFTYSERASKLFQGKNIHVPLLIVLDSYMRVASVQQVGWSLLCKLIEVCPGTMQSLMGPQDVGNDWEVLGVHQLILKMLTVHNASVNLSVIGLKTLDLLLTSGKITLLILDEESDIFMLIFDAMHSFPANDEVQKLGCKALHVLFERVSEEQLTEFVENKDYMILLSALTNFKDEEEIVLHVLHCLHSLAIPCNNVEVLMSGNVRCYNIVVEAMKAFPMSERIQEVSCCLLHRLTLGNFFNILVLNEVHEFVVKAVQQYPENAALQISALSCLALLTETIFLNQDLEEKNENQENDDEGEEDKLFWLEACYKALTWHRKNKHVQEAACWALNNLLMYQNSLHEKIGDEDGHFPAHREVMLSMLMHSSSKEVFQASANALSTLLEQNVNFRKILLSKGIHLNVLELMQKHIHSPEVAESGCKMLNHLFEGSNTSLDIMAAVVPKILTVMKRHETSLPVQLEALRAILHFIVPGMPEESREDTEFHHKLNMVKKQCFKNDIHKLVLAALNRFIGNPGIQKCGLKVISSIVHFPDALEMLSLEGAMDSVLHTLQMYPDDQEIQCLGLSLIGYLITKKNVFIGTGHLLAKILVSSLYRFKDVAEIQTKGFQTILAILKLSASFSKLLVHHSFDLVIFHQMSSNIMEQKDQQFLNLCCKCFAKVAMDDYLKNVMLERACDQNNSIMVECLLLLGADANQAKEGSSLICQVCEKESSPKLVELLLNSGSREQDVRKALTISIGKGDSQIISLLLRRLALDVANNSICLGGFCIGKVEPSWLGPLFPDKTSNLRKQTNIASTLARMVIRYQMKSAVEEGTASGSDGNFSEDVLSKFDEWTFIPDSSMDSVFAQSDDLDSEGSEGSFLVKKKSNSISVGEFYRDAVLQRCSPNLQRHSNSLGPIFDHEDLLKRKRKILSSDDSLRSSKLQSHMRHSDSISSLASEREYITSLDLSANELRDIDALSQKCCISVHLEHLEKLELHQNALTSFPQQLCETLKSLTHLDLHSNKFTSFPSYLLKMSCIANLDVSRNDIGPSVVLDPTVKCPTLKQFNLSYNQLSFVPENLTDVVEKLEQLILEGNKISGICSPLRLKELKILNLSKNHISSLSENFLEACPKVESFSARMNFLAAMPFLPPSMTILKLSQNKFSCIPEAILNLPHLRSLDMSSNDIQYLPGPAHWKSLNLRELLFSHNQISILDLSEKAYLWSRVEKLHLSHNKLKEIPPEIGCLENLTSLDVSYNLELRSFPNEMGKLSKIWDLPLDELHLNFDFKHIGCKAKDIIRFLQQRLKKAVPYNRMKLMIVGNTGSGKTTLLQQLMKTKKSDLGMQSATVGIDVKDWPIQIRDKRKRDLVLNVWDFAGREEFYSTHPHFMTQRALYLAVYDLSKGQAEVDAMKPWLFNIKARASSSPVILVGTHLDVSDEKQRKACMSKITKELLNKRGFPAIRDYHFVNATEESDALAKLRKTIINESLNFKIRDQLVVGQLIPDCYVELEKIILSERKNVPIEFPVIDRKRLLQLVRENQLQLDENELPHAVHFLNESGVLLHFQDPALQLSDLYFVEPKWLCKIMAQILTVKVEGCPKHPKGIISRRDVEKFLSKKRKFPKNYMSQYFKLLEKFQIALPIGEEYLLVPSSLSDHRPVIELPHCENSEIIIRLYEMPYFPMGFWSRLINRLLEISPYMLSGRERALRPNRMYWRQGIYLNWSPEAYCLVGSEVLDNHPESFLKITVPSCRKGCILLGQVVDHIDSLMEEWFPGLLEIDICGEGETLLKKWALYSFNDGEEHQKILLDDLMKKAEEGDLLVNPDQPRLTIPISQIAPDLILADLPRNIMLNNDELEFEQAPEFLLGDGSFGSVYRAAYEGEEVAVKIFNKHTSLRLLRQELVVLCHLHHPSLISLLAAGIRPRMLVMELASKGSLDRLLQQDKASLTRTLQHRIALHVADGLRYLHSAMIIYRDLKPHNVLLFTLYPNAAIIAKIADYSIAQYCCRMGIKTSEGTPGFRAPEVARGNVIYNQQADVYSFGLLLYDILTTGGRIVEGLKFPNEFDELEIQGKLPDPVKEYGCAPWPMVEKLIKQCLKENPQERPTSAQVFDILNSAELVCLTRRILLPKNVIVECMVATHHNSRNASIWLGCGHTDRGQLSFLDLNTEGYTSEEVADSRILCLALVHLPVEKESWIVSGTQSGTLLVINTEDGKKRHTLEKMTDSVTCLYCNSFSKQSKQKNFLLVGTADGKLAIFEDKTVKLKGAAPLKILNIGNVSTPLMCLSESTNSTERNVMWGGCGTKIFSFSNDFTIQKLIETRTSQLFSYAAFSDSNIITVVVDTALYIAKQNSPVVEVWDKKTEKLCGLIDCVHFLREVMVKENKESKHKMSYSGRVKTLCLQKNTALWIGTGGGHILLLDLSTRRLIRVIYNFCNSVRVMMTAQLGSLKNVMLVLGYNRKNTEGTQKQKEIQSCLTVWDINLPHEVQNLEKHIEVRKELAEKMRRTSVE

One may read the Ki as the equilibrium dissociation constant of an inhibitor or competing ligand from its target. On to `CC(C)n1cc2ccc(-c3n[nH]c4ccnc(OC5CCOCC5)c34)cc2n1` [Example 143, 3-(2-isopropyl-2H-indazol-6-yl)-4-(tetrahydro-2H-pyran-4-yloxy)-1H-pyrazolo[4,3-c]pyridine], for which the Ki came to 0.032 µM. Take `Cn1cnc2cc(-c3n[nH]c4ccnc(OC5CCOCC5)c34)ccc21` [Example 145, 3-(1-methyl-1H-benzo[d]imidazol-5-yl)-4-(tetrahydro-2H-pyran-4-yloxy)-1H-pyrazolo[4,3-c]pyridine]: the Ki was found to be 0.036 µM. Turning to `c1cc2[nH]nc(-c3cnn([C@@H]4CCOC4)c3)c2c(OC2CCOCC2)n1` [Example 146, (R)-4-(Tetrahydro-2H-pyran-4-yloxy)-3-(1-(tetrahydrofuran-3-yl)-1H-pyrazol-4-yl)-1H-pyrazolo[4,3-c]pyridine], the Ki worked out at 0.005 µM. Regarding `c1cc2[nH]nc(-c3cnn([C@H]4CCOC4)c3)c2c(OC2CCOCC2)n1` [Example 147, (S)-4-(tetrahydro-2H-pyran-4-yloxy)-3-(1-(tetrahydrofuran-3-yl)-1H-pyrazol-4-yl)-1H-pyrazolo[4,3-c]pyridine], the Ki was determined as 0.003 µM. For the compound `Cc1[nH]nc2cc(C3CC3)nc(OC3CCCCC3)c12` [Example 148, 4-(Cyclohexyloxy)-6-cyclopropyl-3-methyl-1H-pyrazolo[4,3-c]pyridine], the Ki was found to be 0.271 µM.

`c1ccc2ncc(-c3n[nH]c4ccnc(OC5CCOCC5)c34)cc2c1` [Example 150, 3-(4-(Tetrahydro-2H-pyran-4-yloxy)-1H-pyrazolo[4,3-c]pyridin-3-yl)quinoline]: the Ki is 0.012 µM. Consider `N#CCc1cccc(-c2[nH]nc3ccnc(OC4CCOCC4)c23)c1` [Example 151, 2-(3-(4-(Tetrahydro-2H-pyran-4-yloxy)-1H-pyrazolo[4,3-c]pyridin-3-yl)phenyl)acetonitrile], for which the Ki was found to be 0.017 µM. In the case of `CN(C)c1cccc(-c2[nH]nc3ccnc(OC4CCOCC4)c23)c1` [Example 153, N,N-Dimethyl-3-(4-(tetrahydro-2H-pyran-4-yloxy)-1H-pyrazolo[4,3-c]pyridin-3-yl)aniline], the Ki stood at 0.05 µM. On to `CC(C)NC(=O)c1cccc(-c2[nH]nc3ccnc(OC4CCOCC4)c23)c1` [Example 154, N-Isopropyl-3-(4-(tetrahydro-2H-pyran-4-yloxy)-1H-pyrazolo[4,3-c]pyridin-3-yl)benzamide], for which the Ki came out at 0.0784 µM. As for `O=C(NC1CC1)c1cccc(-c2[nH]nc3ccnc(OC4CCOCC4)c23)c1` [Example 155, N-Cyclopropyl-3-(4-(tetrahydro-2H-pyran-4-yloxy)-1H-pyrazolo[4,3-c]pyridin-3-yl)benzamide], the Ki worked out at 0.027 µM.

As to `N#Cc1cncc(-c2n[nH]c3ccnc(OC4CCOCC4)c23)c1` [Example 156], the Ki is 0.172 µM. Turning to `CN1CCc2c(-c3n[nH]c4ccnc(OC5CCOCC5)c34)cccc21` [Example 157, 3-(1-Methylindolin-4-yl)-4-(tetrahydro-2H-pyran-4-yloxy)-1H-pyrazolo[4,3-c]pyridine], the Ki came to 0.495 µM.

On to `c1cc(-c2n[nH]c3ccnc(OC4CCOCC4)c23)c2cc[nH]c2c1` [Example 158, 3-(1H-Indol-4-yl)-4-(tetrahydro-2H-pyran-4-yloxy)-1H-pyrazolo[4,3-c]pyridine], for which the Ki was determined as 0.448 µM. In the case of `CNC(=O)c1cccc(-c2n[nH]c3ccnc(OC4CCOCC4)c23)c1` [Example 160, N-Methyl-3-(4-(tetrahydro-2H-pyran-4-yloxy)-1H-pyrazolo[4,3-c]pyridin-3-yl)benzamide], the Ki came to 0.025 µM. As for `c1cc(CN2CCOCC2)cc(-c2[nH]nc3ccnc(OC4CCOCC4)c23)c1` [Example 161, 4-(3-(4-(Tetrahydro-2H-pyran-4-yloxy)-1H-pyrazolo[4,3-c]pyridin-3-yl)benzyl)morpholine], the Ki turned out to be 0.107 µM. Turning to `COc1cc(Nc2[nH]nc3ccnc(OC4CCOCC4)c23)ccn1` [Example 162, N-(2-methoxypyridin-4-yl)-4-(tetrahydro-2H-pyran-4-yloxy)-1H-pyrazolo[4,3-c]pyridin-3-amine], the Ki is 0.04 µM. As to `c1cc(Nc2[nH]nc3ccnc(OC4CCOCC4)c23)ccn1` [Example 163, N-(Pyridin-4-yl)-4-(tetrahydro-2H-pyran-4-yloxy)-1H-pyrazolo[4,3-c]pyridin-3-amine], the Ki came out at 0.165 µM. As for `CC(C)n1cc(Nc2[nH]nc3ccnc(OC4CCOCC4)c23)cn1` [Example 164, N-(1-Isopropyl-1H-pyrazol-4-yl)-4-(tetrahydro-2H-pyran-4-yloxy)-1H-pyrazolo[4,3-c]pyridin-3-amine], the Ki is 0.03 µM. Turning to `CS(=O)(=O)c1cccc(-c2[nH]nc3ccnc(OC4CCOCC4)c23)c1` [Example 165, 3-(3-(Methylsulfonyl)phenyl)-4-(tetrahydro-2H-pyran-4-yloxy)-1H-pyrazolo[4,3-c]pyridine], the Ki turned out to be 0.029 µM. In the case of `COc1nccc2n[nH]c(-c3cccc(S(C)(=O)=O)c3)c12` [Example 167, 4-Methoxy-3-(3-(methylsulfonyl)phenyl)-1H-pyrazolo[4,3-c]pyridine] it was 0.045 µM. Consider `CC(C)c1nc(-c2n[nH]c3ccnc(NC4CCOCC4)c23)n[nH]1` [Example 168, 3-(5-Isopropyl-4H-1,2,4-triazol-3-yl)-N-(tetrahydro-2H-pyran-4-yl)-1H-pyrazolo[4,3-c]pyridin-4-amine], for which the Ki is 0.007 µM.

Take `CNC(=O)c1cccc(-c2[nH]nc3cc(C)nc(OC4CCOCC4)c23)c1` [Example 171, N-methyl-3-(6-methyl-4-(tetrahydro-2H-pyran-4-yloxy)-1H-pyrazolo[4,3-c]pyridin-3-yl)benzamide]: the Ki worked out at 0.154 µM. In the case of `Cc1cc2[nH]nc(-c3ccnc(N4CCOCC4)c3)c2c(OC2CCOCC2)n1` [Example 172, 4-(4-(6-methyl-4-(tetrahydro-2H-pyran-4-yloxy)-1H-pyrazolo[4,3-c]pyridin-3-yl)pyridin-2-yl)morpholine] it was 0.035 µM; in that of `COc1nccc2n[nH]c(-c3ccc(S(C)(=O)=O)cc3)c12` [Example 173, 4-methoxy-3-(4-(methylsulfonyl)phenyl)-1H-pyrazolo[4,3-c] pyridine], 0.09 µM; in that of `N#Cc1cc(-c2n[nH]c3ccnc(OC4CCOCC4)c23)ccn1` [Example 174, 4-(4-(tetrahydro-2H-pyran-4-yloxy)-1H-pyrazolo[4,3-c]pyridin-3-yl)picolinonitrile], 0.13 µM. With `CC(Oc1nccc2[nH]nc(-c3ccnc(N4CCOCC4)c3)c12)C(F)(F)F` (centres unmarked) [Example 177, 4-(4-(4-(1,1,1-trifluoropropan-2-yloxy)-1H-pyrazolo[4,3-c]pyridin-3-yl)pyridin-2-yl)morpholine], the Ki was determined as 0.016 µM. `COCCOc1nccc2[nH]nc(-c3ccnc(N4CCOCC4)c3)c12` [Example 178, 4-(4-(4-(2-methoxyethoxy)-1H-pyrazolo[4,3-c]pyridin-3-yl)pyridin-2-yl) morpholine]: the Ki was found to be 0.023 µM. Turning to `O=C1OCCN1CCOc1nccc2[nH]nc(-c3ccnc(N4CCOCC4)c3)c12` [Example 179, 3-(2-(3-(2-morpholinopyridin-4-yl)-1H-pyrazolo[4,3-c]pyridin-4-yloxy)ethyl)oxazolidin-2-one], the Ki was found to be 0.354 µM.

Regarding `CC(C)n1cc(-c2n[nH]c3ccnc(OCCN4CCOC4=O)c23)cn1` [Example 182, 3-(2-(3-(1-isopropyl-1H-pyrazol-4-yl)-1H-pyrazolo[4,3-c]pyridin-4-yloxy)ethyl)oxazolidin-2-one], the Ki amounted to 0.323 µM. Regarding `COc1nccc2[nH]nc(-c3cnn(C4CCOCC4)c3)c12` [Example 184, 4-methoxy-3-(1-(tetrahydro-2H-pyran-4-yl)-1H-pyrazol-4-yl)-1H-pyrazolo[4,3-c]pyridine], the Ki was found to be 0.033 µM.

On to `COC(=O)c1[nH]nc2ccnc(NC3CCOCC3)c12` [Example 185, methyl 4-(tetrahydro-2H-pyran-4-ylamino)-1H-pyrazolo[4,3-c]pyridine-3-carboxylate], for which the Ki stood at 0.1 µM. Take `c1cc2[nH]nc(-c3cnn(C4CCOCC4)c3)c2c(OC2CCOCC2)n1` [Example 186, 3-(1-(tetrahydro-2H-pyran-4-yl)-1H-pyrazol-4-yl)-4-(tetrahydro-2H-pyran-4-yloxy)-1H-pyrazolo[4,3-c]pyridine]: the Ki amounted to 0.013 µM.

In the case of `Cc1n[nH]c2ccnc(NC3CCOCC3)c12` [Example 188, 3-methyl-N-(tetrahydro-2H-pyran-4-yl)-1H-pyrazolo[4,3-c]pyridin-4-amine], the Ki amounted to 0.13 µM. As to `c1cc(-c2n[nH]c3ccnc(OC4CCOC4)c23)cc(N2CCOCC2)n1` (centres unmarked) [Example 190, 4-(4-(4-(tetrahydrofuran-3-yloxy)-1H-pyrazolo[4,3-c]pyridin-3-yl)pyridin-2-yl)morpholine], the Ki was found to be 0.013 µM. For `Cc1n[nH]c2ccnc(OC3CCCC3)c12` [Example 196, 4-(cyclopentyloxy)-3-methyl-1H-pyrazolo[4,3-c]pyridine], the inhibitory constant (Ki) amounted to 0.858 µM.

For the origin of these results see US8569281B2, “Compounds and their administration for treating a neurodegenerative disease as well as a method for identifying a compound capable of inhibiting a kinase, such as LRRK” (Medical Research Council Technology, priority 2010, dated 2013).
